Laboratory results reported in patent US20250281464A1, “TREATMENT OF PATHOGENIC NEISSERIA SP. INFECTION WITH TRIAZOLE ANTIFUNGAL AGENTS” (Virginia Tech Intellectual Properties, Inc., priority 2022, published 2025).
Converted amounts (≈) assume the structure as drawn.

Assays:
L. crispatus = test: MIC against commensal vaginal Lactobacillus strains; type: cell-based, Lactobacillus crispatus; details: for MIC: Lactobacillus crispatus
N. gonorrhoeae [1] = test: Post-antibiotic effect (PAE) against N. gonorrhoeae; type: cell-based, Neisseria gonorrhoeae; details: 1 h exposure at 10×MIC
Text: Determining the PAE of a new antimicrobial is an important step for dosing and has clinical importance.

L. jensenii = test: MIC against commensal vaginal Lactobacillus strains; type: cell-based, Lactobacillus jensenii; details: for MIC: Lactobacillus jensenii
N. gonorrhoeae [2] = test: Female mouse model of N. gonorrhoeae genital tract infection; type: in vivo; details: N. gonorrhoeae FA1090, low dose 100 mg/kg orally
Description: FIG. 1—Efficacy of Ravuconazole one oral dose in a mouse model against N. gonorrhoeae FA1090. N. gonorrhoeae burden (average±standard deviation log 10 CFU/mL) after treatment with a single dose of ravuconazole (40 mg/kg) (fosravuconazole/E-1224 Prodrug) via oral gavage. As a negative control, mice (n=8) were administered the vehicle (water), As a positive control, a group of mice received a single intraperitoneal dose of ceftriaxone (15 mg/kg in water). Vaginal swabs were collected daily and cultured to determine the number of viable bacteria. The limit of detection was 10 CFU/mL. The data were analyzed via a two-way ANOVA followed by Dunnett's test for multiple comparisons. Asterisks indicate a statistical significant difference between mice treated with either ravuconazole or ceftriaxone as compared to the vehicle-treated mice.
FIG. 2A-2C—Efficacy of Ravuconazole one oral dose in a mouse model against drug-resistant strains. […] N. gonorrhoeae burden (average±standard deviation log 10 CFU/mL) after treatment with a single dose of ravuconazole (160 mg/kg) (fosravuconazole/E-1224 Prodrug) via oral gavage. […] The data were analyzed via a two-way ANOVA followed by Dunnett's test for multiple comparisons. […]
FIG. 3—Efficacy of 3 doses of isavuconazole against the vaginal burden of N. gonorrhoeae. […] The data were analyzed via a two-way ANOVA followed by Dunnett's test for multiple comparisons. […]

L. gasseri = test: MIC against commensal vaginal Lactobacillus strains; type: cell-based, Lactobacillus gasseri; details: for MIC: Lactobacillus gasseri
Enterococcus faecalis = test: MIC against normal gut microbiota; type: cell-based; details: Enterococcus faecalis (1 strain)
Text: (§1) Disrupting the intestinal microbiota using broad-spectrum antimicrobial therapy increases the susceptibility of hosts to C. difficile colonization.

Escherichia coli = test: MIC against normal gut microbiota; type: cell-based; details: Escherichia coli (1 strain)
Text: as §1

Lactobacillus rhamnosus = test: MIC against normal gut microbiota; type: cell-based; details: Lactobacillus rhamnosus (1 strain)
Text: as §1

Lactobacillus casei = test: MIC against normal gut microbiota; type: cell-based; details: Lactobacillus casei (1 strain)
Text: as §1

Bacteroides fragilis = test: MIC against normal gut microbiota; type: cell-based; details: Bacteroides fragilis (4 strains)
Text: as §1

Enterococcus faecium = test: MIC against normal gut microbiota; type: cell-based; details: Enterococcus faecium (1 strain)
Text: as §1

L. johnsonii = test: MIC against commensal vaginal Lactobacillus strains; type: cell-based, Lactobacillus johnsonii
N. flavescens = test: MIC against Neisseria spp.; type: cell-based; details: N. flavescens (1 strain)
Text: (§2) Intrigued by the specificity and potent activity of azoles against N. gonorrhoeae, we evaluated the extent of the azoles' antibacterial activity against other Neisseria species (Table 8).

N. mucosa = test: MIC against Neisseria spp.; type: cell-based; details: N. mucosa (1 strain)
Text: as §2

N. lactamica = test: MIC against Neisseria spp.; type: cell-based; details: N. lactamica (1 strain)
Text: as §2

N. gonorrhoeae [3] = test: Drug library screen against N. gonorrhoeae; type: cell-based, Neisseria gonorrhoeae; details: Johns Hopkins Clinical Compounds Library, MCE FDA-Approved Drug Library, Pharmakon library; killing in clinical range
Text: To identify drugs capable of killing Neisseria gonorrhoeae, the Johns Hopkins Clinical Compounds Library (1514), the MCE FDA-Approved Drug Library (2441), and the Pharmakon library (1600) were screened against N. gonorrhoeae. Positive hits that are capable of killing Neisseria gonorrhoeae in clinical range were identified (itraconazole, ravuconazole and isavuconazole).

N. meingitidis = test: MIC against Neisseria spp.; type: cell-based, Neisseria meningitidis; details: N. meingitidis (5 strains)

Molecule `C[C@@H](c1nc(-c2ccc(C#N)cc2)cs1)[C@](O)(Cn1cncn1)c1cc(F)ccc1F` [Isavuconazole] has an MIC (L. crispatus; L. crispatus HM-103) greater than 256 µg/mL, an MIC (L. crispatus; L. crispatus HM-371) greater than 256 µg/mL and an MIC (L. crispatus; L. crispatus HM-638) greater than 256 µg/mL. For the same molecule, the “MIC Range” value (L. crispatus; Table 6, L. crispatus (3 strains)) was no less than 256 µg/mL, the PAE (N. gonorrhoeae [1]; strain FA 1090) was 10 h and the PAE (N. gonorrhoeae [1]; strain WHO P) was 10 h. For the same molecule, the PAE (N. gonorrhoeae [1]; strain WHO Y) was 10 h, the MIC (L. jensenii; L. jensenii HM-105) was greater than 256 µg/mL and the MIC (L. jensenii; L. jensenii HM-372) was greater than 256 µg/mL. For the same molecule, the MIC (L. jensenii; L. jensenii HM-374) was greater than 256 µg/mL, the MIC (L. jensenii; L. jensenii HM-639) was greater than 256 µg/mL and the MIC (L. jensenii; L. jensenii HM-640) was greater than 256 µg/mL. The MIC (L. jensenii; L. jensenii HM-645) was greater than 256 µg/mL, the MIC (L. jensenii; L. jensenii HM-646) was greater than 256 µg/mL and the “MIC Range” value (L. jensenii; Table 6, L. jensenii (7 strains)) was no less than 256 µg/mL. The “infected mice in which the infection was cleared” value (N. gonorrhoeae [2]; second day) was 50%, the “infected mice in which the infection was cleared” value (N. gonorrhoeae [2]; third day of treatment) was 100% and the MIC (L. gasseri; L. gasseri HM-407) was greater than 256 µg/mL. For the same molecule, the MIC (L. gasseri; L. gasseri HM-642) was greater than 256 µg/mL, the MIC (L. gasseri; L. gasseri HM-644) was greater than 256 µg/mL and the MIC (L. gasseri; L. gasseri HM-647) was greater than 256 µg/mL. For the same molecule, the “MIC Range” value (L. gasseri; Table 6, L. gasseri (4 strains)) was no less than 256 µg/mL, the “MIC Range” value (Enterococcus faecalis) was greater than 256 µg/mL and the “MIC Range” value (Escherichia coli) was greater than 256 µg/mL. The “MIC Range” value (Lactobacillus rhamnosus) was greater than 256 µg/mL, the “MIC Range” value (Lactobacillus casei) was greater than 256 µg/mL and the “MIC Range” value (Bacteroides fragilis) was greater than 256 µg/mL. For the same molecule, the “MIC Range” value (Enterococcus faecium) was greater than 256 µg/mL, the MIC (L. johnsonii; Lactobacillus johnsonii, L. johnsonii HM-643) was greater than 256 µg/mL and the “MIC Range” value (L. johnsonii; Table 6, L. johsonii (2 strains)) was no less than 256 µg/mL. The “MIC Range” value (N. flavescens) was 16 µg/mL (≈ 36.6 µM), the “MIC Range” value (N. mucosa) was 8 µg/mL (≈ 18.3 µM) and the “MIC Range” value (N. lactamica) was 1 µg/mL (≈ 2.29 µM). The screening outcome (N. gonorrhoeae [3]) was “Positive hits” and the “MIC Range” value (N. meingitidis) was 0.25 to 0.5 µg/mL.
